Data set [1] addresses TYK2 (Homo sapiens, UniProt P29597). Description: JAK kinase inhibitory activity, HTRF biochemical assay. As for the experimental part:
(§1) The compounds of the above embodiments were applied to the detection and screening of JAK kinase inhibitory activity.
(§2) A corresponding volume of DMSO was added to each well of a first 96-well plate. 20-30 μL of 100-200 μM stock solution of different test compounds were added to each well. The mixture was shaken and mixed for 3 min. All of the compounds were subjected to 3× serial dilution. 60-80 μL Kinase buffer was added to each well of a second 96-well plate, and 1-2 μL of the solution taken from each well of the first 96-well plate was added to the corresponding well of the second 96-well plate. The mixture was shaken and mixed for 3 min. 5 μL of compound dilution taken from each well of the second compound dilution plate was transferred to the corresponding well of a 384-well test plate. 1-2 μL TK Substrate-biotin was added to each well of the test plate. 1-2 μL of enzyme mixture was added to each well. At the same time, a blank well without enzyme was set. 1-2 μL of ATP solution was added to each well, the plate was sealed and reacted at room temperature. The reaction time was as follows: JAK1: 2 h, JAK2: 30 min, JAK3: 30 min, and TYK2: 50 min. 3-5 μL of Streptavidin-XL665 and 3-5 μL of TK Antibody-cryptate were added to each well, the plate was sealed and allowed to stand at room temperature for 30 min to complete the reaction.
(§3) The percentage of inhibition was calculated based on the following formula:
(§4) Inhibition %=[(Ratiomax−Ratiocompound)/(Ratiomax−Ratiomin)]×100%
(§5) Ratiocompound is the HTRF ratio at a given compound concentration, Ratiomin is the HTRF ratio added to the blank well, and Ratiomax is the HTRF ratio without adding the compound. GraphPad Prism 5.0 software was used to plot a sigmoid dose-inhibition rate curve with a non-linear regression model and calculate the IC50 value.

Data set [2] deals with JAK1 (Homo sapiens, UniProt P23458). The description is as above. As to the method:
as §1, §2, §3, §4, §5

Data set [3] concerns the target T1, JAK3 (Homo sapiens, UniProt P52333).
T1 sequence (P52333 1-1124): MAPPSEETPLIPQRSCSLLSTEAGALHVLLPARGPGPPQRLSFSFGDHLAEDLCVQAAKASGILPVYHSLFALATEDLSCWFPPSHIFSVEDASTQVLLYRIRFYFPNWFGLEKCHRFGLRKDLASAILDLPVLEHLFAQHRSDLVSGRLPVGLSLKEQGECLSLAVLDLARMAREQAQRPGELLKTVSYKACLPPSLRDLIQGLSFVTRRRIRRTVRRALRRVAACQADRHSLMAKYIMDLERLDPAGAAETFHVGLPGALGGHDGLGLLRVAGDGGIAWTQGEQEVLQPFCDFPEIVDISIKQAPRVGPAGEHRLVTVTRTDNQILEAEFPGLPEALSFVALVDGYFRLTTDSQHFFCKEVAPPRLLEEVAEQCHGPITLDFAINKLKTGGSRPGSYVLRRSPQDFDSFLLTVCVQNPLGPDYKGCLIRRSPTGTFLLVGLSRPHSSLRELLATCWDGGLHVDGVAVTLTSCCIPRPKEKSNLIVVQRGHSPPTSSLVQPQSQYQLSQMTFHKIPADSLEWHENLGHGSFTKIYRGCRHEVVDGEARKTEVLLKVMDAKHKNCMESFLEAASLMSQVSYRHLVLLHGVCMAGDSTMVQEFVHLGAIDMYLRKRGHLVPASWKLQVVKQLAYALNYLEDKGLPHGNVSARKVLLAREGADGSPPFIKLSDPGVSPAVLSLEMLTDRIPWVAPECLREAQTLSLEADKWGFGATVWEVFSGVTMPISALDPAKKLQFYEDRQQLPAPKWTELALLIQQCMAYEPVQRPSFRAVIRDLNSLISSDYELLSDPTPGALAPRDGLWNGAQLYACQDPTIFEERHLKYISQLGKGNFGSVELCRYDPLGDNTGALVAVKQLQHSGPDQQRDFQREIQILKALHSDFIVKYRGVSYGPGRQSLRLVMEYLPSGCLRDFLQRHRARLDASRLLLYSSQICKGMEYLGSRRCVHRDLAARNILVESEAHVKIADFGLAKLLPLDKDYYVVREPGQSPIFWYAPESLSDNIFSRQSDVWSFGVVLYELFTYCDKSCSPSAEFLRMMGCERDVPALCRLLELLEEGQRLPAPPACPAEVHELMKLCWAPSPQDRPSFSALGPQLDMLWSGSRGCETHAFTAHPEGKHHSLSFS
The data set is described as above. As for the experimental part:
as §1, §2, §3, §4, §5

The target of data set [4] is JAK2 (Homo sapiens, UniProt O60674). The description is as above. As for the experimental part: as §1, §2, §3, §4, §5
Sequence of JAK2 (O60674 whole entry, species assumed): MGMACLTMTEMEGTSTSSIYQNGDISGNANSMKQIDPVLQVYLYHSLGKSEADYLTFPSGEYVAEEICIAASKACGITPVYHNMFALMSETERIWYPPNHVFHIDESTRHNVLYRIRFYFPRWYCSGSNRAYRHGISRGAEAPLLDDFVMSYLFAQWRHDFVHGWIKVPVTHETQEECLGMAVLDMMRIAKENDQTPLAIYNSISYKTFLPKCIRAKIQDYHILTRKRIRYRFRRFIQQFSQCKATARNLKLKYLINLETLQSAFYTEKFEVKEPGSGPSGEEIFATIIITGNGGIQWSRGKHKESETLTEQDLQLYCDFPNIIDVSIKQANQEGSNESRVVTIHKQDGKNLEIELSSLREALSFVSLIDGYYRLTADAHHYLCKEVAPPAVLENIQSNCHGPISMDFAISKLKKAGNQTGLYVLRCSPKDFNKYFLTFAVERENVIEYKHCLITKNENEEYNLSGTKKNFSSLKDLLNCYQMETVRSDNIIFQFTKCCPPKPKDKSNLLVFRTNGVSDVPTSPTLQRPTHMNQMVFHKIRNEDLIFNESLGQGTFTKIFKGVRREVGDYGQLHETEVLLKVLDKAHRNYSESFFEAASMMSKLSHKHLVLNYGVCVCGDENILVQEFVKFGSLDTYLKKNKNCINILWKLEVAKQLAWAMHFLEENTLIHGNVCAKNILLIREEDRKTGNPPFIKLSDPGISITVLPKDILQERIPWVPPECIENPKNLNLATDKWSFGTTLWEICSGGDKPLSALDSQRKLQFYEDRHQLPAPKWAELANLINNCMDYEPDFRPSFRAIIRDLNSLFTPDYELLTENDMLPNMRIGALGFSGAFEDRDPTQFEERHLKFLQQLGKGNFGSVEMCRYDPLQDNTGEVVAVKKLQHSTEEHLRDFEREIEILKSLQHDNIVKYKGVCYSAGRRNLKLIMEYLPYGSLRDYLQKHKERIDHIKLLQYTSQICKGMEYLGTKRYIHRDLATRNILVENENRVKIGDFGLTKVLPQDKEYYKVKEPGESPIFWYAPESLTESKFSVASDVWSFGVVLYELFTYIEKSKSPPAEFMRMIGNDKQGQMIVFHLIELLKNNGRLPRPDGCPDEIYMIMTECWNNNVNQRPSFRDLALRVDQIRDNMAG
A short description of data set [5]: Stability of liver microsomes. To be noted: 10 umol/L. The data set is classed as in vitro ADME. As to the method:
Liver microsomes belonging to different species (human, rat) were respectively reacted with the compound according to the present invention for a certain period of time, and the residual rate was calculated by comparing a reacted sample with an unreacted sample, and the extent to which the compounds according to the present invention were metabolized by the liver was evaluated.

Data set [6] concerns the target T2, humanether-a-go-go related gene (hERG) channels (Homo sapiens, UniProt Q12809).
T2 construct: expressed in transfected cells; host or cells: HEK293
Briefly: hERG test, patch clamp in HEK293 cells. The data set is classed as cell-based. The note with it: HEK293 cells expressing hERG, tail current. From the text:
For the purpose of evaluating the risk of prolonged QT interval in ECG of the compound according to the present invention, HEK293 cells expressing humanether-a-go-go related gene (hERG) channels were used to study the effect of the compound according to the present invention on the delayed rectifier K+ current (Ikr) playing an important role in ventricular repolarization.
The cells are maintained at −80 mV using a fully automatic patch clamp system (patch clamp PC-505B (WARNER instruments)) through a fully automatic patch clamp method, and then depolarized to 40 mV with a square wave lasting 4 s and hyperpolarized to −40 mV with a square wave lasting 2 s to obtain the hERG tail current. The maximum current induced by the second square wave was detected. After this current was stabilized, the test compound was perfused. After the reaction was stabilized, the blocking strength was calculated.
Extracellular fluid (mM): NaCl, 137; KCl, 4; CaCl2, 1.8; MgCl2, 1; HEPES, 10; glucose 10; pH 7.4 (NaOH titration). Intracellular fluid (mM): K Aspartate, 130; MgCl2, 5; EGTA 5; HEPES, 10; Tris-ATP 4; pH 7.2 (KOH titration).

Sequence of JAK1 (P23458 whole entry, species assumed): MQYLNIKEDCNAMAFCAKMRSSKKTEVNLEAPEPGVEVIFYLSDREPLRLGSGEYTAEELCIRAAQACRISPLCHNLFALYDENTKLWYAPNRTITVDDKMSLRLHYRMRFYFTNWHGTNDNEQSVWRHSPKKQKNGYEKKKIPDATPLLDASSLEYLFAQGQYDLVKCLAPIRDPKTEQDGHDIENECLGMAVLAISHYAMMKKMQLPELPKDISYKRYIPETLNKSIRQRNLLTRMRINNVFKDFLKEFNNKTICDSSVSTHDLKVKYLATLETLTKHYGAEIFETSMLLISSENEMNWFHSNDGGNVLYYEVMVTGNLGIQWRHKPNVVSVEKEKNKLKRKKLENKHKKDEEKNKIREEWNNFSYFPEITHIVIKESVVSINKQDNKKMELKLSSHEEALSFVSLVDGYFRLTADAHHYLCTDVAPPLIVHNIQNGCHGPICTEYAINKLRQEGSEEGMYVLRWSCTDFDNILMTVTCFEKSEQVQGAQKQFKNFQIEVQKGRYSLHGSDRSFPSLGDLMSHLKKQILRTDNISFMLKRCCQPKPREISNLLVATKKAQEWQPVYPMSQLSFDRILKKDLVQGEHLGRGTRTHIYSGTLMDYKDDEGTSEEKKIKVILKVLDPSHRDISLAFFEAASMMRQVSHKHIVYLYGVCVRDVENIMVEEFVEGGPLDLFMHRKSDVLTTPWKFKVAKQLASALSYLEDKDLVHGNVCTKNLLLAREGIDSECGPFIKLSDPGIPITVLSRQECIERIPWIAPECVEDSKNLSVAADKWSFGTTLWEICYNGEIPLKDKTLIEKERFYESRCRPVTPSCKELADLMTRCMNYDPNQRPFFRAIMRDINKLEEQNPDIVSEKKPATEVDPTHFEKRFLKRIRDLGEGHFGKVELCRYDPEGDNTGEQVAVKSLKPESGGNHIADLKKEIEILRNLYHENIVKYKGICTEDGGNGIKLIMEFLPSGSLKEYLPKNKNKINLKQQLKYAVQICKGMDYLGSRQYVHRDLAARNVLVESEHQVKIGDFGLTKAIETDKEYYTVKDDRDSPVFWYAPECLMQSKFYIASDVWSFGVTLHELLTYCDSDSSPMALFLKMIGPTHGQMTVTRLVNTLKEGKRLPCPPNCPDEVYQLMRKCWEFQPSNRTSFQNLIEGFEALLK
Sequence of TYK2 (P29597 whole entry, species assumed): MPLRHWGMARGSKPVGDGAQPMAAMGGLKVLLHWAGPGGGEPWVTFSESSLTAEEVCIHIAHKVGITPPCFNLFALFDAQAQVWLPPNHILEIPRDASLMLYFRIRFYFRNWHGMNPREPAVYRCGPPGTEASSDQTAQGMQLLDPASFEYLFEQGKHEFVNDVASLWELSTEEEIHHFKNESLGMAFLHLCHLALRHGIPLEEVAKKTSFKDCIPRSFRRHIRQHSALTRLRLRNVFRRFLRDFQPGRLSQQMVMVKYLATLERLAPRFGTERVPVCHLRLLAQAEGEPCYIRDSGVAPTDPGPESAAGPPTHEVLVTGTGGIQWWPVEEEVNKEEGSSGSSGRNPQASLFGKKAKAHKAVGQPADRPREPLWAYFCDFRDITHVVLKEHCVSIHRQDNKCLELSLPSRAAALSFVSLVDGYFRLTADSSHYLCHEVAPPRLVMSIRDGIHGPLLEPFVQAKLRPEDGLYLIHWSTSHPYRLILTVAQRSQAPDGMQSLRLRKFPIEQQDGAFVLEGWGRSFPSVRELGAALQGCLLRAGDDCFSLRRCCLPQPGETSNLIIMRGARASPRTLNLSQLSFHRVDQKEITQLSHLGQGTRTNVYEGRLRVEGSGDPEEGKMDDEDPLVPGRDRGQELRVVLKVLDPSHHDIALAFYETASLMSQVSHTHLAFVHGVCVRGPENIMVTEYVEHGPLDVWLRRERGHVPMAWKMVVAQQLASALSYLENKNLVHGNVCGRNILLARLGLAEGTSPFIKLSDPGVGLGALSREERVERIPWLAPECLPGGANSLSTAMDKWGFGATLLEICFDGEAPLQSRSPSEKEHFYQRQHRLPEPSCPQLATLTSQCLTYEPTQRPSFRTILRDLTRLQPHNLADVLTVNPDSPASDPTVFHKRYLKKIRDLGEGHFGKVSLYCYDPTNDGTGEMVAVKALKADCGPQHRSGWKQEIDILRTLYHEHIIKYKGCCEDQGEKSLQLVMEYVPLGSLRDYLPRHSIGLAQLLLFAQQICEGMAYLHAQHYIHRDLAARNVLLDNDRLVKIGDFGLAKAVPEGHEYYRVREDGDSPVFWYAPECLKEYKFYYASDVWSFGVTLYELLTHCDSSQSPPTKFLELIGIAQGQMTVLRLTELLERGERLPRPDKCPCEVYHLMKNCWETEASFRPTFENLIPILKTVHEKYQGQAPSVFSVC
T2 sequence (Q12809 whole entry): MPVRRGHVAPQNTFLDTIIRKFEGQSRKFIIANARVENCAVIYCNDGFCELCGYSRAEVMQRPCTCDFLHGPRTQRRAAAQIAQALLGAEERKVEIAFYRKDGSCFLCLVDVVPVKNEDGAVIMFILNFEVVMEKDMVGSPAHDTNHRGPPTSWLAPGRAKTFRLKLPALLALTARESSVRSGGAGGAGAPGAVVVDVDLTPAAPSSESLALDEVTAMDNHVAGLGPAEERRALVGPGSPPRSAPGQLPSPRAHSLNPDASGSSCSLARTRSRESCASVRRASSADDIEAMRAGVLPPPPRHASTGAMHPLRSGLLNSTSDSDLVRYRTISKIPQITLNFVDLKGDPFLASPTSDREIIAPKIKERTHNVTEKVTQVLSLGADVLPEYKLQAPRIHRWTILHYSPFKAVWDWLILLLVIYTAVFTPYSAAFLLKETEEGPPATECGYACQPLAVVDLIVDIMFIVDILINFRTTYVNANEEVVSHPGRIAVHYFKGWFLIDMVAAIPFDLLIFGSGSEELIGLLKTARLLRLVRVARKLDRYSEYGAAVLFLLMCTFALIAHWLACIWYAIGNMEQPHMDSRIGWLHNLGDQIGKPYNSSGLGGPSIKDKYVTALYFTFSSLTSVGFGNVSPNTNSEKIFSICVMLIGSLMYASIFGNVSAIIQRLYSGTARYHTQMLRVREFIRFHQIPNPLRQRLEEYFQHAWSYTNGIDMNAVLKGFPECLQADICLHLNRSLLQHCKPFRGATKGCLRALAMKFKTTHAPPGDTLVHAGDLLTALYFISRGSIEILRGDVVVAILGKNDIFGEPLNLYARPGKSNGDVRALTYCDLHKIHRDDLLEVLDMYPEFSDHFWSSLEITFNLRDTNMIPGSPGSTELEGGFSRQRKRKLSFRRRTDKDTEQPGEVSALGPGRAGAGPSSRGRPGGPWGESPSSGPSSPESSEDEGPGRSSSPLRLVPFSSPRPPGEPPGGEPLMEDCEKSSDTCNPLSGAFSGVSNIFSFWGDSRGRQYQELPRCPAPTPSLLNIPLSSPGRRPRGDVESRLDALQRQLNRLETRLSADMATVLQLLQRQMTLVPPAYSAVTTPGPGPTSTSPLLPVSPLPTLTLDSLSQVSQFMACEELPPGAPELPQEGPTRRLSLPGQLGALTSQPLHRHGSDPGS

Consider `O=C(Nc1cn2c(-c3ccc(CN4CCS(=O)(=O)CC4)s3)cccc2n1)[C@H]1C[C@@H]1F` (relative stereo) [EXP-3, trans-N-[5-[5-[(1,1-dioxo-1,4-thiazin-4-yl)methyl]-2-thiophene]imidazo[1,2-a]pyridin-2-yl]-2-fluoro-cyclopropylcarboxamide], for which the IC50 is greater than 500 nM in data set [1]; 10 to 30 nM in data set [2]; greater than 500 nM in data set [3]; 30 to 50 nM in data set [4]; greater than 10000 nM in data set [6]. Further, the results for the “residual rate of the compound in oxidative metabolism” value in data set [5] (human liver microsomes) and in data set [5] (rat liver microsomes) were 59.32% and 55.3%, respectively.

For `O=C(Nc1nc2cccc(-c3ccc(CN4CCS(=O)(=O)CC4)s3)n2n1)C1CC1` [EXP-1], the IC50 was greater than 500 nM in data set [1], 30 to 50 nM in data set [2], 50 to 500 nM in data set [3] and 30 to 50 nM in data set [4].

Values taken from patent US20220274983A1, “JAK KINASE INHIBITOR AND USE THEREOF” (JIANGSU CAREPHAR PHARMACEUTICAL CO., LTD., priority 2019, published 2022).
